Assay results published in patent US20160297768A1, “NOVEL IMIDAZOLE DERIVATIVES AND THERAPEUTIC USE THEREOF” (INDUSTRY-ACA-DEMIC COORPERATION FOUNDATION, YONSEI …, priority 2013, published 2016).

Key:
HeLa cells = assay: Apoptotic activity by MTT analysis, HeLa cells; assay type: cell-based; settings: 15 μM of the compound, mean±standard deviation; for Apoptosis (%) HeLa cells: 12 hours; for cytotoxicity at 15 µM: Homo sapiens, HeLa, 12 h, read-out: Apoptosis (%) HeLa cells
Method: (§1) Lung cancer cells (A549), colorectal cancer cells (HCT116), HeLa cells, liver cancer cells (HepG2), T-cell leukemia cells (Jurkat), myeloid leukemia cells (K562), breast cancer cells (MCF-7 and MDA-MB-231) and myelocytic leukemia cells ([…]) were obtained from the American Type Culture Collection (ATCC), and cultured in 10% fetal bovine serum (FBS), 50 units/mL penicillin and 50 units/mL streptomycin-added RPMI 1640 (Invitrogen). The cells were maintained in a humidified 37° C., 5% CO2 atmosphere. The anticancer activity was detected by MTT analysis. Each type of cancer cells were plated in triplicate in a 96-well microtiter plate, and cultured at 37° C. for 24 hours. The cells were treated with each of the compounds prepared above at 37° C. for 12 hours. After the culturing of the cells, 10 μL of an MTT reagent ((3-[4,5-dimethyl-2-thiazolyl]-2,5-diphenyl-2H-tetrazoliumbromide) was added to each well, and cultured for 3.5 hours. The absorbance of each sample was detected using a UV microplate reader (SpectraMax 340PC 384, Molecular Devices) at 570 nm. The detection results were measured as a mean value. The effect of each compound on apoptosis is shown in Table 1.
(§2) The A549 and HeLa cells were treated with 15 μM of the compound for 12 hours. The apoptosis was detected using MTT (mean±standard deviation).

A549 cells = assay: Apoptotic activity by MTT analysis, A549 cells; assay type: cell-based; settings: 15 μM of the compound, mean±standard deviation; for Apoptosis (%) A549 cells: 12 hours; for cytotoxicity at 15 µM: Homo sapiens, A549, 12 h, read-out: Apoptosis (%) A549 cells
Method: as §1, §2

SMILES | Apoptosis (%) HeLa cells (HeLa cells) [%] | Apoptosis (%) A549 cells (A549 cells) [%] | cytotoxicity at 15 µM (HeLa cells) [%] | cytotoxicity at 15 µM (A549 cells) [%]
COC(=O)c1cc(C(=O)OC)cc(-c2nc(-c3ccc(OC)cc3)c(-c3ccc(OC)cc3)n2Cc2ccc(C(=O)NCCOCCOCCN)cc2)c1 [Example 100, Dimethyl 5-(1-(4-(2-(2-(2-aminoethoxy)ethoxy)ethylcarbamoyl)benzyl)-4,5-bis(4-methoxyphenyl)-1H-imidazole-2-yl)isophthalate] | 37 ± 1.54 | 31 ± 1.78 | – | –
COc1ccc(-c2nc(-c3cc(C(F)(F)F)cc(C(F)(F)F)c3)n(Cc3ccc(C(=O)NCCOCCN)cc3)c2-c2ccc(OC)cc2)cc1 [Example 190, N-(2-(2-aminoethoxy)ethyl)-4-((2-(3,5-bis(trifluoromethyl)phenyl)-4,5-bis(4-methoxyphenyl)-1H-imidazole-1-yl)methyl)benzamide] | – | – | 87 ± 0.62 | 72 ± 2.88
NCCOCCOCCNC(=O)c1ccc(Cn2c(-c3cc(C(F)(F)F)cc(C(F)(F)F)c3)nc(-c3ccccc3Cl)c2-c2ccccc2Cl)cc1 [Example 123, N-(2-(2-(2-aminoethoxy)ethoxy)ethyl)-4-((2-(3,5-bis(trifluoromethyl)phenyl)-4,5-bis(2-chlorophenyl)-1H-imidazole-1-yl)methyl)benzamide] | – | – | 8 ± 0.76 | 11 ± 0.7
NCCOCCOCCNC(=O)c1ccc(Cn2c(-c3cc(C(F)(F)F)cc(C(F)(F)F)c3)nc(-c3ccc(Cl)cc3)c2-c2ccc(Cl)cc2)cc1 [Example 189, N-(2-(2-(2-aminoethoxy)ethoxy)ethyl)-4-((2-(3,5-bis(trifluoromethyl)phenyl)-4,5-bis(4-chlorophenyl)-1H-imidazole-1-yl)methyl)benzamide] | 86 ± 0.64 | 81 ± 0.45 | – | –
COc1ccc(-c2nc(-c3cc(C(F)(F)F)cc(C(F)(F)F)c3)n(Cc3ccc(C(=O)NCCOCCOCCO)cc3)c2-c2ccc(OC)cc2)cc1 [Example 195, 4-((2-(3,5-bis(trifluoromethyl)phenyl)-4,5-bis(4-methoxyphenyl)-1H-imidazole-1-yl)methyl)-N-(2-(2-(2-hydroxyethoxy)ethoxy)ethyl)benzamide] | – | – | 96 ± 0.98 | 86 ± 1.29
COCCNC(=O)c1ccc(Cn2c(-c3cc(C(F)(F)F)cc(C(F)(F)F)c3)nc(-c3ccc(OC)cc3)c2-c2ccc(OC)cc2)cc1 [Example 121, 4-((2-(3,5-bis(trifluoromethyl)phenyl)-4,5-bis(4-methoxyphenyl)-1H-imidazole-1-yl)methyl)-N-(2-methoxyethyl)benzamide] | – | – | 19 ± 1.06 | 13 ± 0.38
NCCOCCOCCNC(=O)c1ccc(Cn2c(-c3cc(C(F)(F)F)cc(C(F)(F)F)c3)nc(-c3ccc(F)cc3)c2-c2ccc(F)cc2)cc1 [Example 188, N-(2-(2-(2-aminoethoxy)ethoxy)ethyl)-4-((2-(3,5-bis(trifluoromethyl)phenyl)-4,5-bis(4-fluorophenyl)-1H-imidazole-1-yl)methyl)benzamide] | – | – | 19 ± 0.65 | 12 ± 0.24
COc1ccc(-c2nc(-c3cc(C(F)(F)F)cc(C(F)(F)F)c3)n(Cc3ccc(C(=O)NCCOCCOCCOCCN)cc3)c2-c2ccc(OC)cc2)cc1 [Example 200, N-(2-(2-(2-(2-aminoethoxy)ethoxy)ethoxy)ethyl)-4-((2-(3,5-bis(trifluoromethyl)phenyl)-4,5-bis(4-methoxyphenyl)-1H-imidazole-1-yl)methyl)benzamide] | – | – | 87 ± 0.78 | 85 ± 1.44
NCCOCCOCCNC(=O)c1ccc(Cn2c(-c3cc(C(F)(F)F)cc(C(F)(F)F)c3)nc(-c3ccc4ccccc4c3)c2-c2ccc3ccccc3c2)cc1 [Example 105, N-(2-(2-(2-aminoethoxy)ethoxy)ethyl)-4-((2-(3,5-bis(trifluoromethyl)phenyl)-4,5-di(naphthalene-2-yl)-1H-imidazole-1-yl)methyl)benzamide] | – | – | 49 ± 0.41 | 39 ± 0.48
